Experiment: gradient 5% acetonitrile 3 min, to 50% in 2 min, to 85% in 15 min, held 3 min, 100 µL/min
Conditions: column: Zorbax Extend-C18 2.1 x 50 mm; eluents: water / acetonitrile, 0.1% formic acid
How it was run: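 Retention time was recorded from adduct peaks, which were picked computationally and each inspected manually. Pure standards ran in mixtures of ~100 molecules on HPLC coupled to a quadrupole time-of-flight mass spectrometer, in positive and negative ionization mode, through a Zorbax Extend-C18 column (2.1 × 50 mm, 1.8 μm) at 100 μL/min. Eluents were water and acetonitrile, each with 0.1% formic acid.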
Compound `COc1ccc(Cn2c(=O)c3sccc3n(Cc3nc(-c4cccc(C)c4)no3)c2=O)cc1` has an RP-LC retention time of 1160 s.
`CN(C)CCCNC(=O)c1cc(-c2ccc(Cl)cc2)cn1C` showed an RP-LC retention time of 671 s.
`Cc1cc(NC(=O)CSc2nc(-c3cccnc3)ccc2C#N)no1` showed an RP-LC retention time of 626 s.
In the case of `NC(=O)c1cccc2cn(-c3ccc([C@@H]4CCCNC4)cc3)nc12`, the RP-LC retention time is reported as 630 s.
Compound `Cc1nc(Nc2ccccn2)sc1C(=O)N1CCN(c2ccccc2F)CC1` has an RP-LC retention time of 841 s.
`O=C(Nc1ccccc1NC(=O)C1CC(=O)N(c2ccc(F)cc2)C1)c1ccsc1` (stereo not given) showed an RP-LC retention time of 739 s.
Compound `c1ccc(-c2nc3cc(-c4noc(C5CCOC5)n4)ccc3o2)cc1` (stereo not given) has an RP-LC retention time of 1100 s.
`Cc1ccc(CNC(=O)c2nnc(-c3ccc(S(=O)(=O)N4CCCCC4)cc3)o2)o1` gave an RP-LC retention time of 952 s.
Compound `CCn1ncc(NC(=O)c2ccc(F)cc2)c(N2CCOCC2)c1=O` has an RP-LC retention time of 772 s.
`O=C(Nc1nc2c(s1)CCC2)c1ccc2c(c1)OCO2` gave an RP-LC retention time of 812 s.
With `Cc1[nH]c2ccc(F)cc2c1CCNCc1ccccn1` the RP-LC retention time was 572 s.
`COC(=O)c1c(C)c(C(=O)C(C)N(CC2CCCCC2)C(=O)c2ccccc2Cl)c(C)n1C` (stereo not given) showed an RP-LC retention time of 1240 s.
Work on `CC(=O)N1CCc2cc(N3CC(C(=O)NCc4cccnc4)CC3=O)ccc21` (stereo not given) yielded an RP-LC retention time of 557 s.
Work on `CN1C(=O)c2ccccc2Oc2ccc(C(=O)NCc3ccc(Br)cc3)cc21` yielded an RP-LC retention time of 955 s.
Work on `N#Cc1cccc(-c2cn3c(n2)N(C(=O)C2CCC2)CCC3)c1` yielded an RP-LC retention time of 690 s.
`CC(=O)Nc1ccc(C(=O)N2CC3CN(S(=O)(=O)c4cccc(F)c4)CC(C2)O3)cc1` gave an RP-LC retention time of 685 s.
With `CCN1CCN(CCCNC(=O)C2CCN(Cc3cn(C)c4ccc(Cl)cc34)CC2)CC1` the RP-LC retention time was 564 s.
In the case of `O=C(CCC(=O)Nc1noc2ccccc12)NCCc1ccc(Cl)cc1`, the RP-LC retention time is reported as 816 s.
Work on `O=C(Cn1c(=O)c2nncn2c2ncccc21)NCc1ccccc1Cl` yielded an RP-LC retention time of 662 s.
`O=C(Nc1ccccc1)Oc1ccc[nH]c1=O` showed an RP-LC retention time of 650 s.
`O=C(CN1C(=O)C(C(=O)N2CCCC2)Sc2ccccc21)NCc1ccccc1Cl` (stereo not given) gave an RP-LC retention time of 928 s.
In the case of `Cc1nc2ccc3nc(NC(=O)COc4ccccc4F)sc3c2s1`, the RP-LC retention time is reported as 877 s.
Work on `O=C(NCc1ccc2c(c1)OCO2)C(=O)Nc1ccon1` yielded an RP-LC retention time of 655 s.
Compound `COc1ccc(-c2noc(C3CCCN3C(=O)c3ccsc3)n2)cc1` (stereo not given) has an RP-LC retention time of 849 s.
`CC(C)c1ccc(NC(=O)c2cc3sc(Cl)cc3n2C)cc1` gave an RP-LC retention time of 1300 s.
With `CCn1ncc(NC(=O)COc2ccc(F)cc2)c(N2CCCCC2)c1=O` the RP-LC retention time was 793 s.
With `Cc1ccc(CNC(=O)C2(C)CN(S(C)(=O)=O)CC(=O)N2Cc2cccc(C)c2)cc1` (stereo not given) the RP-LC retention time was 868 s.
In the case of `CCCN1C(=O)COc2ccc(-c3noc(CNS(=O)(=O)c4ccccc4)n3)cc21`, the RP-LC retention time is reported as 888 s.
Work on `O=C(NCCN1CCCCCC1)c1csc(-c2ccnc(N3CCOCC3)c2)n1` yielded an RP-LC retention time of 569 s.
Work on `CS(=O)(=O)N1CCN(C(=O)c2nn(CC3CC3)c3c2CNCC3)CC1` yielded an RP-LC retention time of 558 s.
`Cc1ccc(C)c(N2CCN(C(=O)c3ccc4c(c3)CCN4C(=O)C3CC3)CC2)c1` showed an RP-LC retention time of 1070 s.
With `CCc1noc(NC(C)=O)c1-c1ccc(OC)c(S(=O)(=O)Nc2ccc(S(N)(=O)=O)cc2)c1` the RP-LC retention time was 655 s.
In the case of `COc1cc(C(=O)N2CCN(c3cc(C)c4ccccc4n3)CC2)cc(OC)c1OC`, the RP-LC retention time is reported as 635 s.
For `CCOc1ccc(S(=O)(=O)N2CCc3c(c(-c4nnc(SCC)n4CC)nn3C)C2)cc1`, the RP-LC retention time was 961 s.
With `COc1cccc(C(=O)NC2CCN(c3cc(C)cc(C)c3)C2=O)c1` (stereo not given) the RP-LC retention time was 876 s.
`CN1C(=O)c2cccnc2Sc2cc(NC(=O)C3CCCCC3)ccc21` gave an RP-LC retention time of 828 s.
`COc1ccc(N2C=C(C(=O)N3CCCC3)S(=O)(=O)c3ccccc32)cc1OC` showed an RP-LC retention time of 726 s.
Compound `O=c1c2c(ccn1Cc1nc(-c3ccsc3)no1)ccn2CC1CC1` has an RP-LC retention time of 980 s.
Work on `Cc1oc2ncnc(N3CCCC(C(=O)N4CCC(C(N)=O)CC4)C3)c2c1C` (stereo not given) yielded an RP-LC retention time of 620 s.
In the case of `CCOc1ccccc1N(CC)C(=O)C1CCCN(c2ncnc3c2nc2n3CCCCC2)C1` (stereo not given), the RP-LC retention time is reported as 807 s.
With `Cc1cc(CC(=O)N2CCCn3ccnc3C2C2CCCC2)on1` (stereo not given) the RP-LC retention time was 587 s.
For `CCS(=O)(=O)N1CC(=O)N(c2cccc(C)c2C)C(C)(C(=O)NCc2ccccc2)C1` (stereo not given), the RP-LC retention time was 807 s.
With `CCOc1ccc(CNC(=O)C2CCCN(c3nn4c(=O)c5c(nc4s3)CCCC5)C2)cc1` (stereo not given) the RP-LC retention time was 784 s.
Work on `Cc1nn(-c2nc(CC(=O)N3CCC(C)CC3)cs2)c(C)c1Cl` yielded an RP-LC retention time of 1190 s.
`CCn1nccc1-c1cccc(-c2noc(-c3c(F)cccc3F)n2)c1` gave an RP-LC retention time of 1270 s.
